Laboratory results as given in patent publication US20220193072A1, “METHODS OF TREATING BREAST CANCER WITH TETRAHYDRONAPHTHALENE DERIVATIVES AS ESTROGEN RECEPTOR DEGRADER” (Arvinas Operations, Inc., priority 2020, published 2022).
Values joined by “and” are separate entries in the source; they are usually repeats but may differ in a detail not shown here. Identical values can stand only once.

Key:
[1] = tested on: MCF7 xenograft; experiment: Tumor growth inhibition in orthotopic MCF7/estradiol xenograft model, single agent; assay type: in vivo, NOD/SCID mice; settings: for tumor growth inhibition (TGI): 28 days, vs vehicle
Protocol: Species: NOD/SCID female mice (Charles River, 6-7 weeks old upon arrival).
Animal handling: Axial mammary fat pad implantation of 5×10^6 MCF7 cells/200 per mouse (17β-estradiol 0.36 mg 90-day pellet implanted day before).
Tumor volumes were evaluated twice per week for twenty-eight days.
Sampling: Tumors were measured twice weekly. Terminal sacrifice was ˜18 hr after last dose; tumors were harvested, divided, and flash frozen. ERα levels were determined by immunoblotting.
Tumor volume calculation: Tumor Volume=(width×width×length)/2, where all measurements are in mm and the tumor volume is in mm^3.
Tumor Growth Inhibition (TGI) calculation: TGI (%)

[2] = Phase I dose escalation safety; assay type: in vivo, human; settings: 30 mg/day cohort, n=3
Excerpt: A Phase I Clinical Trial with Compound (I-c) was undertaken. A traditional 3+3 dose escalation design was implemented. […] Dose increases were dependent on toxicities.
The key entry criteria for this trial were: ER+/HER2− advanced breast cancer; at least two prior endocrine therapies in any setting, and a CDK4/6 inhibitor; and up to three prior cytotoxic chemotherapy regimens.

[3] = tested on: MCF7 xenograft; experiment: MCF7 orthotopic xenograft, combination with CDK4/6 inhibitor; assay type: in vivo, NOD/SCID mice
[4] = tested on: MCF7 cells; experiment: Live-cell imaging growth studies and EC50 for growth inhibition, MCF7; assay type: cell-based; settings: Homo sapiens, read-out: Approximate Half-maximal Effective Concentration (EC50) for growth inhibition
Protocol: MCF7, T47D, T47D ESR1 Y537S or T47D ESR1 D538G cells were seeded at 2×10^5 density per well in 6-well tissue culture-treated plates in DMEM/F12/10% FBS (2 mL total volume). […] The plate was then placed in the Incucyte® S3 Live-Cell Analysis System and images were acquired every 4 hours for a total of 5 days (120 hours). Data were analyzed using the Incucyte® Software v2020C which quantified cell surface area coverage as confluence values. Relative growth was calculated for all timepoints for all growth conditions relative to the confluence value observed for the control at 120 hours. Graphing and statistical analyses were performed using Graphpad Prism (GraphPad Software).

[5] = tested on: MCF7 xenograft; experiment: MCF7 orthotopic xenograft, combination with PI3K inhibitor alpelisib; assay type: in vivo, NOD/SCID mice
Protocol: NOD/SCID female mice (Charles River, 6-7 weeks old upon arrival) were implanted with 17b-estradiol 0.72 mg 90-day pellets. The next day, each mouse was implanted with 5×10^6 MCF7 cells/[…] in the axial mammary fat pad. Compound administration was initiated once the tumors reached 175-200 mm^3. Diet was supplemented with peanut butter to help maintain body weights. Dosing holidays occurred on days 6, 7, 8 and 9 due to body weight loss in some animals in study arms 3 and 4. […] (FIG. 31 and Table 15).
Dosing holidays occurred on days 6, 7, 8 and 9. Error bars represent standard deviation.
The ratio of Tween 80 to PEG-400 is 0.02 g Tween 80 to 1 ml PEG-400. PEG-400 is added to a pre-aliquoted volume of Tween 80. • For alpelisib: 1% carboxymethylcellulose (CMC), 0.5% Tween 80/DI water (‘CMC/Tween’) Sampling: tumors were measured twice weekly. Terminal sacrifice was ˜18 hr after last dose. Tumor volume calculation: Tumor Volume=(width×width×length)/2, where all measurements are in mm and the tumor volume is in mm^3. Tumor Growth Inhibition (TGI) calculation: TGI (%)

[6] = molecular target: T1, rat uterine ER (Rattus norvegicus, UniProt P06211); experiment: Immature rat uterotrophic model; assay type: in vivo
T1 construct: from tissue; host or cells: uterus of immature rats
T1 sequence (P06211 1-600): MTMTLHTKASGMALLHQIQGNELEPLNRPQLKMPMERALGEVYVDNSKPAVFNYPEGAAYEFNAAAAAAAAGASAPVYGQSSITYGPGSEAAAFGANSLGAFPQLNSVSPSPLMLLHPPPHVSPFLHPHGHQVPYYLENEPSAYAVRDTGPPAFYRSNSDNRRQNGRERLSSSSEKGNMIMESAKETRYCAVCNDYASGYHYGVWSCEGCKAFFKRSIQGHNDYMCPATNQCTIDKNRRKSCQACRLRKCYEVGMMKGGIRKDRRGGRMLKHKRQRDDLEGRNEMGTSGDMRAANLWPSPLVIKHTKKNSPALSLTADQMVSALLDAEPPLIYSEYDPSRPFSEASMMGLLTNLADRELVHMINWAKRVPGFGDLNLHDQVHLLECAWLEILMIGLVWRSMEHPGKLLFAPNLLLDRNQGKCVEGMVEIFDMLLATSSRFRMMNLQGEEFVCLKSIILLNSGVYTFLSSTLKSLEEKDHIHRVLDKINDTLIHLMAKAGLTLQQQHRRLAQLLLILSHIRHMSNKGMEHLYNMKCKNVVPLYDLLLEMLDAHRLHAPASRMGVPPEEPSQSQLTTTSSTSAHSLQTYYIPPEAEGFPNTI

[7] = Compound (I-c) 30 mg/kg oral QD x 28
[8] = Compound (I-c) 30 mg/kg oral QD x 19

**Q.** Which “Day 28 Tumor volume (mean ± SD)” value ([1]; 3 mg/kg oral QD x 28) does the source give for `O=C1CC[C@H](N2Cc3cc(N4CCN(CC5CCN(c6ccc([C@@H]7c8ccc(O)cc8CC[C@@H]7c7ccccc7)cc6)CC5)CC4)ccc3C2=O)C(=O)N1` [Compound (I-c), (3S)-3-[5-[4-[[1-[4-[(1R,2S)-6-hydroxy-2-phenyl-tetralin-1-yl]phenyl]-4-piperidyl]methyl]piperazin-1-yl]-1-oxo-isoindolin-2-yl]piperidine-2,6-dione] here?
**A.** 286 ± 206 mm^3

**Q.** And the “TGI (% vehicle)” value ([1]; 3 mg/kg oral QD x 28)?
**A.** 85 % vehicle

**Q.** What about the “tumor growth inhibition (TGI)” value ([1]; 3 mg/kg oral once daily) of the same compound?
**A.** 85%

**Q.** And the “Day 28 Tumor volume (mean ± SD)” value ([1]; 10 mg/kg oral QD x 28)?
**A.** 226 ± 118 mm^3

**Q.** What about the “TGI (% vehicle)” value ([1]; 10 mg/kg oral QD x 28) of the same compound?
**A.** 98 % vehicle

**Q.** And the “tumor growth inhibition (TGI)” value ([1]; 10 mg/kg oral once daily)?
**A.** 98% and 94%

**Q.** What about the “Day 28 Tumor volume (mean ± SD)” value ([1]; 30 mg/kg oral QD x 28) of the same compound?
**A.** 115 ± 79 mm^3

**Q.** And the “TGI (% vehicle)” value ([1]; 30 mg/kg oral QD x 28)?
**A.** 124 % vehicle

**Q.** What about the “tumor growth inhibition (TGI)” value ([1]; 30 mg/kg oral once daily) of the same compound?
**A.** 124%

**Q.** And the dose limiting toxicity [2]?
**A.** no dose limiting toxicity

**Q.** And the “treatment related adverse events” value [2]?
**A.** no treatment related adverse events

**Q.** And the “Day 28 Tumor volume (mean ± SD)” value [3, 7]?
**A.** 170 ± 62 mm^3

**Q.** What about the “TGI (% vehicle)” value [3, 7] of the same compound?
**A.** 105 % vehicle

**Q.** What about the “tumor growth inhibition (TGI)” value ([3]; single agent 30 mg/kg oral QD x 28) of the same compound?
**A.** 105%

**Q.** And the EC50 [4]?
**A.** 10 nM

**Q.** And the “Day 19 Tumor Volume (mean ± SD)” value [5, 8]?
**A.** 207 ± 62 mm^3

**Q.** What about the “TGI (% vehicle)” value [5, 8] of the same compound?
**A.** 95 % vehicle

**Q.** And the “tumor growth inhibition (TGI)” value ([5]; single agent 30 mg/kg oral once daily, 19 days, dosing holidays days 6-9)?
**A.** 95%

**Q.** And the “degradation of rat uterine ER” value [6]?
**A.** degrades

**Q.** And the “agonist activity (uterine weight)” value ([6]; FIG. 17: 30 mg/kg once a day oral)?
**A.** no agonist activity
